# Assays:
# Gamma-secretase [1] = test: Modulation of gamma-secretase-mediated cleavage of human APP Swedish and London mutation expressed in HEK293 cells assessed as inhibition of amyloid beta42 production after 5 hrs by sandwich immunoassay; type: cell-based
# Gamma-secretase [2] = test: Modulation of gamma-secretase-mediated cleavage of human APP Swedish and London mutation expressed in HEK293 cells assessed as reduction of total amyloid beta level after 5 hrs by sandwich immunoassay; type: cell-based
# Gamma-secretase [3] = test: Modulation of gamma-secretase-mediated cleavage of human APP Swedish and London mutation expressed in HEK293 cells assessed as inhibition of amyloid beta40 production after 5 hrs by sandwich immunoassay; type: cell-based
# Gamma-secretase [4] = test: Modulation of gamma-secretase-mediated notch signaling in HEK293 cells transfected with human APP Swedish and London mutation and Notch1 with truncated extracellular EGF repeat domain assessed as production of notch intracellular domain by MSD-based sandwich immunoassay; type: cell-based
# [5] = Permeability from apical to basolateral side of human Caco2 cells; type: ADME, cell-based; settings: Caco-2, read-out: permeability
# [6] = AUC in rat at 10 mg/kg, po; type: ADME, organism-based, Plasma; set-up: dose 10 mg/kg, route oral; settings: plasma
# [7] = Cmax in rat at 10 mg/kg, po; type: ADME, organism-based; set-up: dose 10 mg/kg, route oral; settings: in vivo
# [8] = Oral bioavailability in rat at 10 mg/kg; type: ADME, organism-based; settings: in vivo
# [9] = Half life in rat at 3 mg/kg, iv; type: ADME, organism-based; set-up: dose 3 mg/kg, route intravenous; settings: in vivo
# [10] = Volume of distribution at steady state in rat at 3 mg/kg, iv; type: ADME, organism-based; set-up: dose 3 mg/kg, route intravenous; settings: in vivo, read-out: Vdss
# [11] = Clearance in rat at 3 mg/kg, iv; type: ADME, organism-based; set-up: dose 3 mg/kg, route intravenous; settings: in vivo
# [12] = AUC in dog at 10 mg/kg, po; type: ADME, organism-based, Canis lupus familiaris, Plasma; set-up: dose 10 mg/kg, route oral; settings: plasma
# [13] = Cmax in dog at 10 mg/kg, po; type: ADME, organism-based, Canis lupus familiaris; set-up: dose 10 mg/kg, route oral; settings: in vivo
# [14] = Oral bioavailability in dog at 10 mg/kg; type: ADME, organism-based, Canis lupus familiaris; settings: in vivo
# [15] = Half life in dog at 3 mg/kg, iv; type: ADME, organism-based, Canis lupus familiaris; set-up: dose 3 mg/kg, route intravenous; settings: in vivo
# [16] = Volume of distribution at steady state in dog at 3 mg/kg, iv; type: ADME, organism-based, Canis lupus familiaris; set-up: dose 3 mg/kg, route intravenous; settings: in vivo, read-out: Vdss
# [17] = Clearance in dog at 3 mg/kg, iv; type: ADME, organism-based, Canis lupus familiaris; set-up: dose 3 mg/kg, route intravenous; settings: in vivo
# [18] = AUC in monkey at 10 mg/kg, po; type: ADME, organism-based, Macaca mulatta; set-up: dose 10 mg/kg, route oral; settings: rhesus monkey, plasma
# [19] = Cmax in monkey at 10 mg/kg, po; type: ADME, organism-based, Macaca mulatta; set-up: dose 10 mg/kg, route oral; settings: rhesus monkey, in vivo
# [20] = Oral bioavailability in monkey at 10 mg/kg; type: ADME, organism-based, Macaca mulatta; settings: rhesus monkey, in vivo
# [21] = Half life in monkey at 3 mg/kg, iv; type: ADME, organism-based, Macaca mulatta; set-up: dose 3 mg/kg, route intravenous; settings: rhesus monkey, in vivo
# [22] = Volume of distribution at steady state in monkey at 3 mg/kg, iv; type: ADME, organism-based, Macaca mulatta; set-up: dose 3 mg/kg, route intravenous; settings: rhesus monkey, in vivo, read-out: Vdss
# [23] = Clearance in monkey at 3 mg/kg, iv; type: ADME, organism-based, Macaca mulatta; set-up: dose 3 mg/kg, route intravenous; settings: rhesus monkey, in vivo
# Canis familiaris = species on record: Canis familiaris; test: Cardiotoxicity in dog assessed as effect on electrocardiographic QTc interval at compound concentration required for pharmacological effect; type: toxicity, organism-based, Canis lupus familiaris; settings: in vivo
# Rattus norvegicus [24] = species on record: Rattus norvegicus; test: Toxicity in rat assessed as production of goblet cell meta/hyperplasia in ileum at highest tolerable dose; type: organism-based; settings: in vivo
# Rattus norvegicus [25] = species on record: Rattus norvegicus; test: Toxicity in rat assessed as decrease in thymus size at highest tolerable dose; type: organism-based; settings: in vivo
# Rattus norvegicus [26] = species on record: Rattus norvegicus; test: Toxicity in rat assessed as decrease in body weight at highest tolerable dose; type: organism-based; settings: in vivo
# Rattus norvegicus [27] = species on record: Rattus norvegicus; test: Toxicity in rat assessed as effect on HES-1 expression in jejunum at highest tolerable dose; type: organism-based; settings: in vivo
# Rattus norvegicus [28] = species on record: Rattus norvegicus; test: Toxicity in rat assessed as effect on adipsin expression in jejunum at highest tolerable dose; type: organism-based; settings: in vivo
# Rattus norvegicus [29] = test: Antialzheimer activity in CD rat assessed as reduction in amyloid beta42 level in CSF at 10 mg/kg, po after 3 hrs by alphaLISA analysis; type: functional; set-up: scale not given: the % may be the effect or the level left
# Rattus norvegicus [30] = test: Antialzheimer activity in CD rat assessed as reduction in amyloid beta40 level in CSF at 10 mg/kg, po after 3 hrs by alphaLISA analysis; type: functional; set-up: scale not given: the % may be the effect or the level left
# Rattus norvegicus [31] = test: Antialzheimer activity in CD rat assessed as reduction in total amyloid beta level in CSF at 10 mg/kg, po after 3 hrs by alphaLISA analysis; type: functional; set-up: scale not given: the % may be the effect or the level left
# Rattus norvegicus [32] = test: Antialzheimer activity in CD rat assessed as reduction in amyloid beta42 level in cortex at 10 mg/kg, po after 3 hrs by alphaLISA analysis; type: functional; set-up: scale not given: the % may be the effect or the level left
# Rattus norvegicus [33] = test: Antialzheimer activity in CD rat assessed as reduction in amyloid beta40 level in cortex at 10 mg/kg, po after 3 hrs by alphaLISA analysis; type: functional; set-up: scale not given: the % may be the effect or the level left
# Rattus norvegicus [34] = test: Antialzheimer activity in CD rat assessed as reduction in amyloid beta42 level in plasma at 10 mg/kg, po after 3 hrs by alphaLISA analysis; type: functional; set-up: scale not given: the % may be the effect or the level left
# Rattus norvegicus [35] = test: Antialzheimer activity in CD rat assessed as reduction in amyloid beta40 level in plasma at 10 mg/kg, po after 3 hrs by alphaLISA analysis; type: functional; set-up: scale not given: the % may be the effect or the level left
# Rattus norvegicus [36] = test: Antialzheimer activity in CD rat assessed as reduction in total amyloid beta level in plasma at 10 mg/kg, po after 3 hrs by alphaLISA analysis; type: functional; set-up: scale not given: the % may be the effect or the level left
# Rattus norvegicus [37] = test: Antialzheimer activity in po dosed CD rat assessed as reduction in amyloid beta42 level in CSF after 3 hrs by alphaLISA analysis relative to total amyloid beta level; type: functional, organism-based
# Rattus norvegicus [38] = test: Antialzheimer activity in po dosed CD rat assessed as reduction in amyloid beta42 level in plasma after 3 hrs by alphaLISA analysis relative to total amyloid beta level; type: functional, organism-based
# Rattus norvegicus [39] = test: Antialzheimer activity in po dosed CD rat assessed as reduction in amyloid beta42 level in plasma after 3 hrs by alphaLISA analysis relative to amyloid beta40 level; type: functional, organism-based
# Rattus norvegicus [40] = test: Antialzheimer activity in po dosed CD rat assessed as reduction in amyloid beta42 level in cortex after 3 hrs by alphaLISA analysis relative to total amyloid beta level; type: functional, organism-based
# Rattus norvegicus [41] = test: Antialzheimer activity in po dosed CD rat assessed as reduction in amyloid beta42 level in cortex after 3 hrs by alphaLISA analysis relative to amyloid beta40 level; type: functional, organism-based
# Rattus norvegicus [42] = test: Antialzheimer activity in CD rat assessed as reduction in amyloid beta42 level in CSF administered as po for 6 days by alphaLISA analysis relative to total amyloid beta level; type: functional, organism-based
# Rattus norvegicus [43] = test: Antialzheimer activity in po dosed CD rat assessed as reduction in amyloid beta42 level in CSF after 3 hrs by alphaLISA analysis relative to amyloid beta40 level; type: functional, organism-based
# Rattus norvegicus [44] = test: Antialzheimer activity in CD rat assessed as reduction in amyloid beta42 level in plasma administered as po for 6 days by alphaLISA analysis relative to total amyloid beta level; type: functional, organism-based
# Rattus norvegicus [45] = test: Antialzheimer activity in CD rat assessed as reduction in amyloid beta42 level in plasma administered as po for 6 days by alphaLISA analysis relative to total amyloid beta40 level; type: functional, organism-based
# Rattus norvegicus [46] = test: Antialzheimer activity in CD rat assessed as reduction in amyloid beta42 level in cortex administered as po for 6 days by alphaLISA analysis relative to total amyloid beta level; type: functional, organism-based
# Rattus norvegicus [47] = test: Antialzheimer activity in CD rat assessed as reduction in amyloid beta42 level in cortex administered as po for 6 days by alphaLISA analysis relative to total amyloid beta40 level; type: functional, organism-based
# Rattus norvegicus [48] = test: Antialzheimer activity in CD rat assessed as reduction in amyloid beta42 level in CSF administered as po for 6 days by alphaLISA analysis relative to total amyloid beta40 level; type: functional, organism-based
# [49] = Plasma concentration in CD rat at 10 mg/kg, po after 3 hrs; type: ADME, organism-based; set-up: dose 10 mg/kg, route oral
# [50] = Ratio of drug level in brain to plasma in CD rat at 10 mg/kg, po after 3 hrs; type: ADME, organism-based; set-up: dose 10 mg/kg, route oral; settings: read-out: BPR
smiles,measurement,setting,value
COc1cc(/C=C2\CCCN3C2=NO[C@]3(CO)c2ccc(F)cc2)ccc1-n1cnc(C)c1,IC50,Gamma-secretase [1],29 nM
same,IC50,Gamma-secretase [2],14100 nM
same,IC50,Gamma-secretase [3],170 nM
same,IC50,Gamma-secretase [4],> 50000 nM
same,Papp A→B,[5],30.2 ×10⁻⁶ cm/s
same,AUC,[6],61 µM·h
same,Cmax,[7],7.5 µM
same,bioavailability,[8],98%
same,half-life,[9],3.4 h
same,Vd,[10],1.6 L/kg
same,clearance,[11],6.1 mL/min/kg
same,AUC,[12],26 µM·h
same,Cmax,[13],4 µM
same,bioavailability,[14],38%
same,half-life,[15],1.4 h
same,Vd,[16],0.4 L/kg
same,clearance,[17],5 mL/min/kg
same,AUC,[18],30 µM·h
same,Cmax,[19],8.8 µM
same,bioavailability,[20],48%
same,half-life,[21],3 h
same,Vd,[22],1.4 L/kg
same,clearance,[23],6 mL/min/kg
same,Activity,Canis familiaris,Non-toxic
same,Activity,Rattus norvegicus [24],Non-toxic
same,Activity,Rattus norvegicus [25],Non-toxic
same,Activity,Rattus norvegicus [26],Non-toxic
same,Activity,Rattus norvegicus [27],Non-toxic
same,Activity,Rattus norvegicus [28],Non-toxic
same,Activity,Rattus norvegicus [29],66%
same,Activity,Rattus norvegicus [30],104%
same,Activity,Rattus norvegicus [31],120%
same,Activity,Rattus norvegicus [32],37%
same,Activity,Rattus norvegicus [33],77%
same,Activity,Rattus norvegicus [34],41%
same,Activity,Rattus norvegicus [35],44%
same,Activity,Rattus norvegicus [36],77%
same,Activity,Rattus norvegicus [37],Dose-dependent effect
same,Activity,Rattus norvegicus [38],Dose-dependent effect
same,Activity,Rattus norvegicus [39],Dose-dependent effect
same,Activity,Rattus norvegicus [40],Dose-dependent effect
same,Activity,Rattus norvegicus [41],Dose-dependent effect
same,Activity,Rattus norvegicus [42],Dose-dependent effect
same,Activity,Rattus norvegicus [43],Dose-dependent effect
same,Activity,Rattus norvegicus [44],Dose-dependent effect
same,Activity,Rattus norvegicus [45],Dose-dependent effect
same,Activity,Rattus norvegicus [46],Dose-dependent effect
same,Activity,Rattus norvegicus [47],Dose-dependent effect
same,Activity,Rattus norvegicus [48],Dose-dependent effect
same,concentration at 3 h,[49],3.6 µM
same,Kp at 3 h,[50],0.15

# From ChEMBL document CHEMBL1949526, “Cyclic hydroxyamidines as amide isosteres: discovery of oxadiazolines and oxadiazines as potent and highly efficacious γ-secretase modulators in vivo” (J Med Chem, 2012)
